This passage reports melting point results from a melting point compilation (Tetko et al.; mined from patent text by program, amines drawn as free bases though some values may be those of a salt).

One may read the melting point as the temperature of the solid-liquid transition. As for `COc1ccc(N2CCOCC2)c2sc(C(=O)NC3CCN(C(=O)OC(C)(C)C)CCC3=O)nc12` (stereo unspecified), the melting point lay within 95 to 97 °C.

Molecule `N#Cc1c(N2CCc3ccccc3CC2)nc(CC(N)=O)[nH]c1=O` displayed a melting point greater than 200 °C.

On to `O=c1cc(-c2ccccc2)cc2n1CCN2`, for which the melting point is 198 to 200 °C.

Turning to `CC(C)n1nc(-c2sc(NC(=O)Cn3ccnc3)nc2-c2ccccc2)ccc1=O`, the melting point lay within 160 to 161 °C.

The molecule `COc1ccc2c(c1OC)CCC2=O` returned a melting point of 73 to 74 °C.

Molecule `O=c1ccn(-c2cccc(Oc3nc4ccccc4[nH]3)c2)nc1-c1ccnn1-c1ccccc1` gave a melting point of 149 to 150 °C.

`Brc1cccc2nc(N3CCNCC3)ccc12` displayed a melting point of 94 to 96 °C.

The molecule `CC(C)C(N)=C(C#N)C(N)=S` came in with a melting point of 112 to 114 °C.

As to `CCOC(=O)C(=CNNc1c(Cl)cc(C(F)(F)F)cc1Cl)C(=O)OCC`, the melting point amounted to 86 °C.

The molecule `O=C(O)CCCSc1ccc(C(=O)O)cn1` returned a melting point of 185 °C.

In turn, `O=C(O)CCCCCCCn1cnc(-c2ccccc2Cl)c1-c1ccccc1Cl` yielded a melting point of 145 to 146 °C.

On to `Cc1cccc(-c2cn(C)cc(-c3cccc(Br)c3)c2=O)c1`, for which the melting point is 144 to 147 °C.

`COc1ccc(Cc2ccc3nc(N)nc(N)c3c2)cc1OC` registered a melting point of 215 to 217 °C.

`Cn1ncc2c(c1=O)OCCNC2Cc1ccccc1` (stereo unspecified) registered a melting point of 113 to 115 °C.

On to `CCCc1c(O)ccc2c1OC(C)(CCC(=O)OC)CC2=O` (stereo unspecified), for which the melting point was 102 °C.

`CC(CCl)(CCl)c1cc(Cl)nnc1Cl` came in with a melting point of 92 to 94 °C.

The molecule `CCc1cc(OCc2ccc(-c3ccccc3C#N)cc2)c2ccccc2n1` returned a melting point of 151 to 153 °C.

In the case of `COc1ccc(C2=NN(CCCCOc3ccc(C4=NNC(=O)CC4C)c(F)c3F)C(=O)C2(C)C)c2cc(C(F)(F)F)sc12` (stereo unspecified), the melting point was in the range of 137 to 138 °C.

Molecule `COc1ccc(SC2=C(C(=O)NO)CCC2=CCCc2ccccc2)cc1OC` displayed a melting point of 44 to 46 °C.

`CCc1ccc(Cl)c(S(=O)(=O)NC(=O)c2cn3cc(C(F)(F)F)cc(Cl)c3n2)c1`: the melting point fell in the range of 214 to 215 °C.

`CCC1CC(=O)N(Cc2cccc(C(=O)NC3CCCC3)c2)N=C1c1ccc(OC)c(OC)c1` (stereo unspecified) displayed a melting point of 54 °C.

In turn, `O=C(O)COCOc1cc(Cl)cc(Cl)c1` gave a melting point of 79 to 82 °C.

With `Cc1cccc(-c2nc(NC(=O)Cc3ccccc3)sc2-c2ccnc(NC(=O)Cc3ccccc3)n2)c1`, the melting point was 110 to 113 °C.

`C1=CCC(OC2=CC=CC2)=C1` had a melting point of 74 °C.

The molecule `CC(C)Oc1cccc(C2(C)CN(C)CCC2O)c1` (stereo unspecified) came in with a melting point of 75 to 76 °C.

As for `COc1ncccc1-c1ccc(OC2SCC(O)C(O)C2O)c(Cl)n1` (stereo unspecified), the melting point is 102 °C.

The molecule `O=C(/C=C/c1ccc2ccccc2c1)Nc1ccccc1-c1nnn[nH]1` displayed a melting point of 187 to 191 °C.

The molecule `O=C(O)c1cccc(CN2CCN(c3ccc(NC(=O)c4ccccc4-c4ccc(C(F)(F)F)cc4)cc3)CC2)c1` displayed a melting point of 225 to 227 °C.

Consider `O=C1C2=C(CCCC2)C(=O)N1c1cc([N+](=O)[O-])c(Cl)cc1F`, for which the melting point lay in the range of 152 to 155 °C.

For the molecule `CN1CCC23CCCCC2C1Cc1ccc(Oc2nc(-c4ccccc4)nc4ccccc24)cc13` (single isomer, unassigned; (+)), the melting point was 138 to 139 °C.

In turn, `O=C(Oc1ccccc1)N1CC[C@@H](c2ccc(F)cc2)[C@H](CO)C1` (relative stereo) yielded a melting point of 129 to 131 °C.

As to `COc1ccc(-c2ccc(C)c(OCC(OC)OC)c2)cc1`, the melting point lay within 39 to 40 °C.

`CC(C)c1ccccc1S(=O)(=O)c1ccc(OCCCNC(C)(C)C)cc1` returned a melting point of 116 °C.

The molecule `CCOCc1nc2c(N)nc3cc(OCc4cccc(C)c4)ccc3c2n1CC(C)(C)NS(C)(=O)=O` showed a melting point of 252 to 254 °C.

Molecule `CN(C)Cc1cc(C(=O)Nc2nc(-c3ccco3)c(C(=O)c3ccccc3)s2)ccn1` came in with a melting point of 205 to 209 °C.

On to `CC(=O)OCCN1CCC(CNC(=O)[C@@H]2CCCN2S(=O)(=O)c2ccc(Cl)c(COc3cccc4c(-n5ccnc5)cc(C)nc34)c2Cl)CC1`, for which the melting point came to 93 °C.

Take `O=c1ccoc(C(O)c2ccc3ccccc3c2)c1OCc1ccccc1` (stereo unspecified): the melting point lay within 159 to 160 °C.

Turning to `CC(=O)C1CCC2C3CCC4CC(O)(Cc5ccccc5)CCC4(C)C3CCC12C` (stereo unspecified), the melting point is 133 to 141 °C.

Molecule `CC(=NNc1ccccc1)c1ccc(O)cc1O` had a melting point of 159 °C.

Turning to `CC(Cc1n[nH]c(=O)c2ccccc12)c1cccnc1` (stereo unspecified), the melting point is 142 °C.

As to `CCCCCCCCCCc1ccc2ccc(OC)cc2c1`, the melting point was in the range of 29.9 to 30.8 °C.

`COc1ccc2c(C)cc(=O)oc2c1C` displayed a melting point of 162 to 164 °C.

Regarding `Nc1c(-c2cc(Cl)ccc2O)nnn1-c1ccc(Cl)cc1Cl`, the melting point was in the range of 131 to 136 °C.

As to `Cc1cc(C2(C(F)(F)F)ON=C(c3ccc(F)cc3)O2)ccc1N` (stereo unspecified), the melting point was in the range of 78 to 83 °C.

For `COC(=O)CS(=O)(=O)N1CC=C(c2ccc(-c3ccccc3)cc2)CC1`, the melting point fell in the range of 182 to 183 °C.

In turn, `CCn1cc(C(=O)O)c(=O)c2cc(F)c(N3CCC(CNCCO)C3)c(F)c21` (stereo unspecified) came in with a melting point of 215 to 216 °C.

Turning to `O=C(CC(NC(=O)OCc1ccccc1)c1ccccc1)Nc1n[nH]c(=S)s1` (stereo unspecified), the melting point lay in the range of 222 to 223 °C.

Molecule `CCOc1ccccc1[C@H]1O[C@H](CC(=O)O)C(=O)N(CC(C)C)c2ccc(Cl)cc21` (relative stereo) gave a melting point of 190 to 192 °C.

`CCOc1ccc(S(=O)(=O)n2nc(O)cc2N)cc1-c1nc2cccnc2c(=O)[nH]1`: the melting point was in the range of 246 to 249 °C.

The molecule `NCCCCCCCCCCCCCCCCCCCCCC(=O)O` returned a melting point of 166 to 168 °C.

The molecule `CCc1nc2nccc(-c3cccnc3)n2n1` showed a melting point of 147 to 149 °C.

`N#CNC(=NC1CCCC1)Nc1cccc(C(F)(F)F)c1` came in with a melting point of 112 to 113 °C.

`Cc1cc(C)cc(-c2[nH]c3ccc(-c4nccs4)cc3c2CCN)c1` displayed a melting point of 98.5 to 100 °C.

As to `N#Cc1cc(N2CCC(c3cc(Cl)cc(Cl)c3)(C(F)(F)F)C2)ccc1F` (stereo unspecified), the melting point was 184 to 186 °C.

With `COc1ccc2c(c1)-c1nn(CCCl)c3ccc([N+](=O)[O-])c(c13)N2`, the melting point was in the range of 264 to 265 °C.

With `O=[N+]([O-])c1cnc(Cl)nc1NCCO`, the melting point was 123 to 125 °C.

`C=CC(=O)OCCCCCCCCOc1ccc(C(=O)O)cc1` gave a melting point of 157 to 158 °C.

In the case of `CCCCNc1cc(C(=O)O)cc(S(N)(=O)=O)c1Sc1ccc(N)cc1`, the melting point was in the range of 232 to 234 °C.

In turn, `O=C(O)C1CC(=C2CCCN(c3ccccc3)C2=O)c2ccc(Cl)cc2N1` (stereo unspecified) showed a melting point of 130 to 133 °C.

On to `Cc1c(C)c2c(c(C)c1NC(=O)CC(C)(C)C)C(c1ccc(C(C)C)c(OCCO)c1)CO2` (stereo unspecified), for which the melting point was in the range of 155 to 156 °C.

With `CCCc1c(Cl)oc2ccc(I)cc2c1=O`, the melting point lay within 103 to 105 °C.

For the molecule `O=[N+]([O-])c1ccc(Oc2ccccc2Oc2ccc([N+](=O)[O-])c(O)c2)cc1O`, the melting point lay in the range of 178 to 180 °C.

Turning to `COc1ccc(NC(=O)C23CC4CC(CC(C4)C2)C3)cc1OC`, the melting point fell in the range of 224 to 226 °C.

`CC(=S)NC[C@H]1CN(c2ccc(N3CCC(C#N)(C(C#N)C#N)CC3)c(F)c2)C(=O)O1`: the melting point lay in the range of 178 to 180 °C.

In turn, `N#Cc1ccccc1-c1ccc(C(F)(F)F)c(Cl)c1` registered a melting point of 138 to 140 °C.

On to `COC(=O)NCc1cc(C(C)=NO)ccc1Cl`, for which the melting point fell in the range of 124 to 127 °C.

For `CC1(C)C=Cc2c(ccc3c2C(=O)C(Br)=C(O)C3=O)O1`, the melting point was 202 to 205 °C.

`CC(C)(C)[Si](C)(C)Oc1ccccc1-c1cc(-c2cccc([N+](=O)[O-])c2)c(C#N)c(NC(=O)c2ccsc2)n1` gave a melting point of 139 to 142 °C.

Turning to `COc1cc(C2CCN(C[C@H](Oc3ncc4ccc(-c5ccccc5OC)n4n3)C(F)(F)F)CC2)ccc1N`, the melting point lay in the range of 73 to 82 °C.

As to `N#Cc1nc(N2CCNCC2)nc(N2CCS(=O)CC2)c1Cl`, the melting point lay in the range of 206 to 208 °C.

In turn, `O=C1COc2cc(OCc3c(F)cccc3F)ccc21` returned a melting point of 134 to 138 °C.

Molecule `O=C(O)/C=C/c1cncc(OCc2ccccc2)c1` showed a melting point of 140 °C.

Consider `Cc1noc(C)c1CN1CC2(COc3cc4c(cc32)OCO4)c2ccccc21` (stereo unspecified), for which the melting point is 165 to 167 °C.

Consider `COC(=O)C=Cc1ccc(Cl)c([N+](=O)[O-])c1`, for which the melting point is 107 °C.

Molecule `COC(=NC(=O)c1ccccc1)NC(=O)c1ccccc1` gave a melting point of 139 to 141 °C.

With `COc1cc(C2CCN(C)CC2)ccc1Nc1ncc2ccc(-c3ccccc3OC)n2n1`, the melting point fell in the range of 71 to 84 °C.

`COCCOC(=O)C1=C(C)NC(C)=C(C(=O)OCCOC)C1c1ccccc1OC(F)F` came in with a melting point of 94 to 95 °C.

`CC(C)(C)c1ccc(N2C(=O)c3ccc4c5cccc6cccc(c7ccc(c3c47)C2=O)c65)cc1`: the melting point was greater than 330 °C.

In the case of `COC(=O)c1ccc(C(=O)CC(=O)c2ccc3c(c2)C(C)(C)CCC3(C)C)cc1`, the melting point was 128 °C.

As for `CC(C)c1cc(C(C)C)c2nc[nH]c(=O)c2c1`, the melting point was in the range of 164 to 165 °C.

For the molecule `CC(C)CCSc1cc(C(=O)O)cc(S(N)(=O)=O)c1-c1ccccc1`, the melting point is 70 to 74 °C.

`CC1(C)OCC(COC(=O)Cc2cccc3c(=O)cc(C4=CCCCC4)oc23)O1` (stereo unspecified): the melting point was in the range of 104 to 105 °C.

`CCN1c2ncc(CCc3ccnc(C(=O)OC)c3)cc2C(=O)N(C)c2ccc(Cl)nc21`: the melting point was found to be 149 °C.

For the molecule `CC(C)(C)C(NC(=O)c1ccc(Cl)cc1)Nc1c(Nc2cccnc2)c(=O)c1=O` (stereo unspecified), the melting point lay within 257 to 258 °C.

On to `C=CCC(CC=C)(CC=C)C(=O)O[C@H]1C[C@H](O)C=C2C=C[C@H](C)[C@H](CC[C@@H]3C[C@@H](O)CC(=O)O3)[C@H]21`, for which the melting point fell in the range of 118 to 119 °C.

For `O=C(O)/C=C/C=C(c1cccc(C(F)(F)F)c1)c1cccc(C(F)(F)F)c1`, the melting point lay in the range of 110 to 112 °C.
